Reference: the supplement of paper PMC6723410
“And” between values parts separate entries of the source, which are not always exact repeats. Equal entries are not always repeated.

Test system: GUMC-403
Assay: viability at highest tested concentration (max response) relative to DMSO (% of DMSO control); higher = less cytotoxic
Conditions: library / dose series: MIPE library, 11-point 1:3 dilution, 48 h
In short: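 Each figure stands for viability at the highest tested concentration compared with vehicle control. It was measured by CellTiter-Glo luminescence on a ViewLux after 48 h of exposure to 23 nL of pinned compound, with vehicle wells taken as 100% and empty wells as 0%. The cells were patient-derived GUMC-403 papilloma cells grown by conditional reprogramming, plated at 700/well in 5 μL F + Y medium in 1536-well plates.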

Structure (SMILES) | viability (top concentration 46.1 µM) | viability (top concentration 23 µM)
CC(C)OC(=O)OCOP(=O)(CO[C@H](C)Cn1cnc2c(N)ncnc21)OCOC(=O)OC(C)C.O=C(O)C=CC(=O)O | 118 and 94.5 | –
COc1cc(C(C)=O)ccc1OCCCN1CCC(c2noc3cc(F)ccc23)CC1 | 102 | –
CN1CCc2c(n(Cc3ccc(C(=O)NO)cc3)c3ccccc23)C1 | 107 | –
CCCNCC(O)COc1ccccc1C(=O)CCc1ccccc1 (stereo not drawn) | 90.5 | –
Cn1cc(-c2ccncc2)c(-c2ccc(OCc3ccc4ccccc4n3)cc2)n1 | 98.3 | –
CCOc1cc2c(c(F)c1OCC)C(=N)N(CC(=O)c1cc(N3CCOCC3)c(OC)c(C(C)(C)C)c1)C2 | 124 | –
CC\1=C(C(=O)N(\C=C1)C2=CC=C(C=C2)C3=NC=CO3)/C4=CC5=CN=C(N)N=C5C=C4 | 79.7 | –
Oc1ccc2ccccc2c1SSc1c(O)ccc2ccccc12 | 129 | –
COc1nc(-c2ccc3c(c2)OCO3)n(-c2ccc(NC(=O)CSc3ccccc3)cc2)n1 | 101 | –
O=C([O-])C[C@H](O)C[C@H](O)/C=C/c1c(C2CC2)nc2ccccc2c1-c1ccc(F)cc1 | 92.1 | –
CC1(C)O[C@H]2CC(=O)OC[C@]23[C@H]2CC[C@@]4(C)[C@H](c5ccoc5)OC(=O)[C@H]5O[C@]54[C@]2(C)C(=O)C[C@@H]13 | 139 | –
C[C@]12CC[C@@H]3c4ccc(O)cc4CC[C@H]3[C@@H]1[C@@H](O)[C@@H](O)[C@@H]2O | 94.5 | –
CCN(C(=O)C/1=C(O)/C2=C(C=CC=C2Cl)N(C)C1=O)C3=CC=CC=C3 | 119 | –
COc1cc(C)c(Sc2cnc(NC(=O)c3ccc(CNC(C)C(C)(C)C)cc3)s2)cc1C(=O)N1CCN(C(C)=O)CC1 (stereo not drawn) | 71.7 | –
NC(=O)Nc1cc(-c2ccc(CN3CCOCC3)cc2)sc1C(N)=O | 70.6 | –
COC1=C(OCCCN2CCOCC2)C=C3N=CC=C(OC4=CC=C(C=C4F)\C5=C\N=C(\NC6=CC=C(F)C=C6)N(C)C5=O)C3=C1 | 72.6 | –
O=C(NC1CC1)c1cccc(-c2ccc3c(NC(=O)C4CC4)n[nH]c3c2)c1 | 110 | –
CCOc1cc(C(=O)Nc2ccc(Cl)c(-c3nc4ccccc4[nH]3)c2)cc(OCC)c1OCC | 90.5 | –
C/C(=C\c1csc(C)n1)[C@@H]1C[C@@H]2O[C@]2(C)CCC[C@H](C)[C@H](O)[C@@H](C)C(=O)C(C)(C)[C@@H](O)CC(=O)O1 | 102 | –
COc1cc(NCc2ccc3nc(N)nc(N)c3c2C)cc(OC)c1OC | 99.5 | –
Cc1c(O)cccc1C(=O)N[C@@H](CSc1ccccc1)[C@H](O)CN1C[C@H]2CCCC[C@H]2C[C@H]1C(=O)NC(C)(C)C | 126 | –

Structure (SMILES) | viability (top concentration 46.1 µM) | viability (top concentration 23 µM)
O=C(Nc1cccc2c(=O)cc(-c3nnn[nH]3)oc12)c1ccc(OCCCCc2ccccc2)cc1 | 87 | –
O=C(O)CCn1c2c(c3ccccc31)C[C@H](N[S+](=O)([O-])c1ccc(F)cc1)CC2 | 116 | –
OCCN1CCN(CCCN2c3ccccc3Sc3ccc(C(F)(F)F)cc32)CC1 | 97.2 | –
COC1(C[S+]([O-])c2ccccc2)CCN(CCc2c[nH]c3ccc(F)cc23)CC1 (stereo not drawn) | 101 | –
COc1cc(NC(=O)c2ccc(-c3ccc(Cl)cc3)o2)cc(OC)c1 | 39.9 | –
CCNC(=O)C[C@@H]1\N=C(C2=CC=C(Cl)C=C2)/C3=C(C=CC(=C3)OC)[N]4C(=NN=C14)C | 79.8 | –
ClC1=CC(=CC=C1)N2CCN(CCCN3\N=C4\C=C/C=C\N4C3=O)CC2 | 103 | –
N[S+](=O)([O-])c1cc2c(cc1Cl)NC(C(Cl)Cl)N[S+]2(=O)[O-] (stereo not drawn) | 98.6 | –
OC[C@H]1O[C@H](C[C@@H]1O)[N]2C=NC3=C2\N=C/NC[C@H]3O | 83.1 | –
O=C(Nc1c(Cl)cncc1Cl)c1ccc(OC(F)F)c(OCC2CC2)c1 | 125 | –
[O-]C(=O)C/1=N/C(=O)NC(=O)N1 | – | 90.2
Cc1c[nH]c(/C=C2\C(=O)Nc3ccccc32)c1CCC(=O)O | 136 | –
CCN(CC)CCCC(C)Nc1nc(C)cc(Nc2ccc3nc(C)cc(N)c3c2)n1 (stereo not drawn) | 106 | –
CC(C)C[C@H](NC(=O)[C@@H](O)[C@H](N)Cc1ccccc1)C(=O)O | 102 | –
Cc1ccc(-c2ncn(-c3ccc(Nc4nccc(-c5cccc(N6CCOCC6)c5)n4)cc3)n2)cn1 | 32 | –
Cn1c(=O)c2[nH]cnc2n(C)c1=O | 120 | –
Cn1cc(-c2ccc3ncc(Cc4ccc5ncccc5c4)n3n2)cn1 | 123 | –
CC(=O)CC(C1=CC=CC=C1)C/2=C(O)/C3=CC=CC=C3OC2=O (stereo not drawn) | 118 | –
C#Cc1cccc(Nc2ncnc3cc(OCCOC)c(OCCO)cc23)c1 | 47.5 | –
CN1C(=O)CCS(=O)(=O)C1c1ccc(Cl)cc1 (stereo not drawn) | 104 | –
CN1C(=O)C(Cc2c[nH]c3ccccc23)NC1=S (stereo not drawn) | 102 | –

Structure (SMILES) | viability (top concentration 46.1 µM) | viability (top concentration 23 µM)
CCCn1c(=O)c2[nH]c(C34CC5CC3C[C@@H](C5)C4)nc2n(CCC)c1=O | 122 | –
CN(C(Cc1ccc(O[S+](=O)([O-])c2cccc3cnccc23)cc1)C(=O)N1CCN(c2ccccc2)CC1)[S+](=O)([O-])c1cccc2cnccc12 (stereo not drawn) | 83.2 | –
CN(C)Cc1cccc(N/C(=C2\C(=O)Nc3cc(C(=O)N(C)C)ccc32)c2ccccc2)c1 | 95.1 | –
OC[C@H]1O[C@@H](Oc2cc(O)cc(/C=C/c3ccc(O)cc3)c2)[C@H](O)[C@@H](O)[C@@H]1O | 128 | –
C[C@H](CCC(=O)O)[C@H]1CC[C@H]2[C@@H]3[C@H](O)C[C@@H]4C[C@H](O)CC[C@]4(C)[C@H]3CC[C@]12C | 128 | –
CNCC(O)C(O)C(O)C(O)CO.O=C(O)c1ccc(-c2cc3cccnc3c(-c3ccc4nonc4c3)n2)cc1 | 117 | –
Nc1ccc(C(=O)Nc2cccc(-c3nc(N4CCOCC4)c4oc5ncccc5c4n3)c2)cn1 | 101 | –
CN(C)CCOC(c1ccccc1)c1ccccc1 | 120 | –
NCC1CCC(C(=O)O)CC1 (stereo not drawn) | 115 | –
NC/1=N/C(=O)C2=C(N1)[N](C=N2)[C@@H]3C[C@H](O)[C@@H](CO)C3=C | 100 | –
C=CCO/N=C(/C[C@H]1O[C@@H]2O[C@]3(C)CC[C@H]4[C@H](C)CC[C@@H]([C@H]1C)[C@@]24OO3)[C@H]1O[C@@H]2O[C@]3(C)CC[C@H]4[C@H](C)CC[C@@H]([C@H]1C)[C@@]24OO3 | 92.1 | –
CN(C)CCc1ccc(O)cc1 | 118 | –
COc1cc2ncnc(-n3nc(-c4ccccn4)nc3N)c2cc1OC | 124 | –
CC1(C)NC(=O)N(c2ccc([N+](=O)[O-])c(C(F)(F)F)c2)C1=O | 75.8 | –
c1ccc2c(-c3cnn4cc(-c5ccc(N6CCNCC6)cc5)cnc34)ccnc2c1 | 2.71 | –
CNC1CCCN(c2c(F)cc3c(=O)c(C(=O)O)cn(C4CC4)c3c2OC)C1 (stereo not drawn) | 121 | –
CN(C)[C@H]\1[C@@H]2C[C@H]3C(=C(O)\[C@]2(O)C(=O)\C(=C1O)C(N)=O)/C(=O)C4=C(O)C=CC=C4[C@@]3(C)O | 106 | –
Cc1ccnc(N[S+](=O)([O-])c2ccc(NC(=O)Nc3ccc([S+](=O)([O-])Nc4nccc(C)n4)cc3)cc2)n1 | 121 | –
C[C@H](NC(=O)C(=O)Nc1ccccc1C(C)(C)C)C(=O)N[C@@H](CC(=O)O)C(=O)COc1c(F)c(F)cc(F)c1F | 68.7 | –
CC1=CC/2=C(C=C1C)N(C[C@@H](O)[C@@H](O)[C@@H](O)CO)C/3=N/C(=O)NC(=O)C3=N2 | 123 | –
C\C1=C\C(=O)C2=C(C=CC=C2)C1=O | 109 | –

Structure (SMILES) | viability (top concentration 46.1 µM) | viability (top concentration 23 µM)
CC(=O)C1=C(O)C2(C)C(=CC1=O)Oc1c(C(C)=O)c(O)c(C)c(O)c12 (stereo not drawn) | 143 | –
CN[C@@H]1Cc2cccc3[nH]c(=O)n(c23)C1 | 112 | –
N\C1=N\C2=C(N=C[N]2COCCO)C(=O)N1 | 117 | –
CCC[C@@H]1C[C@@H](C(=O)N[C@@H]([C@H]2O[C@H](SC)[C@H](O)[C@@H](O)[C@H]2O)[C@@H](C)O)N(C)C1.Cl | 101 | –
CN1CCCN(CC1)C2=CC=C3C(=O)\C(=C/4SC5=C(C=CC=C5)N4C3=N2)C(=O)NCC6=CN=C(C)C=N6 | – | 101
C[C@@H](c1ncncc1F)[C@](O)(Cn1cncn1)c1ccc(F)cc1F | 96.3 | –
CC(C)(C)c1cc(C=C(C#N)C#N)cc(Br)c1O | 101 | –
CC(C)(N)C(=O)N[C@H](COCc1ccccc1)C(=O)N1CCC2(CC1)CN([S+](C)(=O)[O-])c1ccccc12 | 103 | –
CC1(N2CCC(n3c([C@@H]4CCCNC4)nc4ccccc43)CC2)CCCCCCC1 | 115 | –
COc1ccc2c(OCc3nnc4ccc(-c5ccccc5)nn34)ccnc2c1 | 126 | –
N[C@@H](Cc1c[nH]c2ccc(O)cc12)C(=O)O | 106 | –
CC[C@@]1(O)C(=O)OCC/2=C1/C=C3\N(CC4=CC5=CC(=CC=C5N=C34)O)C2=O | 42.5 | –
NC12CC3CC(CC(C3)C1)C2 | 136 | –
CN1/C=C(\N=C(NC2=CC=C(C=C2)C(=O)N3CCOCC3)/C1=O)/C4=C(C)C(=CC=C4)NC(=O)C5=CC=C(C=C5)C(C)(C)C | 117 | –
CC(=O)N1CCN(c2ccc(OC[C@H]3CO[C@](Cn4ccnc4)(c4ccc(Cl)cc4Cl)O3)cc2)CC1 | 104 | –
C[C@]12CC[C@H]3[C@@H](CCC/4=C/C(=O)CC[C@]34C)[C@@H]1CC[C@@H]2OC(=O)CCC5CCCC5 | 102 | –
COc1cccc([C@@H](C)NCCCc2ccccc2Cl)c1 | 105 | –
COC(=O)\C1=C\CCN(C)C1 | 111 | –
O=C1NC(O)CCN1[C@@H]1O[C@H](CO)[C@@H](O)[C@H]1O (stereo partly drawn) | 124 | –
CO/N=C(/C(=O)N[C@@H]1C(=O)N2C(C(=O)O)=C(CSC(=O)c3ccco3)CS[C@H]12)c1csc(N)n1 | 172 | –
